Structures are written as SMILES.

Type in all cases: in vivo
Experiment [1] has as its system KKAy mice with spontaneous type 2 diabetes. In words: Fasting blood glucose, blood insulin and insulin sensitivity index in KKAy mice. To be noted: 28th day, 150 mg/kg.
Experimental: The KKAy mice with spontaneous type 2 diabetes were divided into 5 groups based on the following five indexes: blood glucose reduction percentage within 40 min in an insulin tolerance test, fasting blood glucose, blood TG, blood TC, and weight. […] Animals in the three dosage groups underwent gavage with 500, 1000, and 1500 mg/kg of the traditional Chinese medicine extract composition of the present invention respectively. […] Gavage was performed once a day for 58 consecutive days, and fasting blood glucose and blood insulin level were measured (ELISA method) at the same time when a glucose tolerance test was carried out on the animals in each group on the 28th day of administration, and an insulin sensitivity index (ISI) was calculated, wherein ISI=1/(FBGmg/dl×FBIng/ml).
Experiment [2] shares this test system. In words: Glycosylated hemoglobin (HbA1c) level in KKAy mice. To be noted: 48th day, 150 mg/kg. On the procedure: (§1) The female KKAy mice with spontaneous type 2 diabetes were fed with a diet dedicated for KKAy mice, with 5 mice in each cage. When the mice weighed over 40 g, prediction of a plurality of indexes such as blood glucose, blood lipid, and insulin resistance were performed. Based on fasting blood glucose, blood glucose reduction percentage within 40 min in an insulin tolerance test, blood triglyceride (TG), total cholesterol (TC), and weight, the mice were divided into 5 groups, with 12 mice in each group.
The KKAy mice with spontaneous type 2 diabetes were divided into 5 groups based on the following five indexes: blood glucose reduction percentage within 40 min in an insulin tolerance test, fasting blood glucose, blood TG, blood TC, and weight. […] Animals in the three dosage groups underwent gavage with 500, 1000, and 1500 mg/kg of the traditional Chinese medicine extract composition of the present invention respectively. The female C57BL/6J mice were used as a normal animal control group (Nor, underwent gavage with a equal volume of water, n=10). Gavage was performed once a day for 58 consecutive days, and blood was collected from the tail tip on the 48th day to measure the glycosylated hemoglobin level.

For experiment [3] the test system is unchanged. Put plainly: Serum triglyceride and total cholesterol in KKAy mice. To be noted: 14th day, 150 mg/kg. On the procedure:
as §1
The KKAy mice with spontaneous type 2 diabetes were divided into 5 groups based on the following five indexes: blood glucose reduction percentage within 40 min in an insulin tolerance test, fasting blood glucose, blood TG, blood TC, and weight. […] The female C57BL/6J mice were used as a normal animal control group (Nor, underwent gavage with a equal volume of water, n=10). Gavage was performed once a day for 58 consecutive days, and at the same time when the animals in each group underwent an insulin tolerance test on the 14th day of administration, blood was collected to measure the serum triglyceride (TG) and total cholesterol (TC) levels.

For experiment [4] the test system is unchanged. Put plainly: Hyperinsulinemic-euglycemic clamp in KKAy mice. The settings on record: after 54th day, SSBG 6.0 mmol/L, IIR 20.0 mU/kg/min, 150 mg/kg. On the procedure: as §1
The KKAy mice with spontaneous type 2 diabetes were divided into 5 groups based on the following five indexes: blood glucose reduction percentage within 40 min in an insulin tolerance test, fasting blood glucose, blood TG, blood TC, and weight. […] The female C57BL/6J mice were used as a normal animal control group (Nor, underwent gavage with a equal volume of water, n=10). Gavage was performed once a day for 58 consecutive days, and After the 54th day of administration to the animals in each group, 5-6 mice were randomly selected from different groups to carry out a hyperinsulinemic-euglycemic clamp test each day.

For experiment [5] the test system is unchanged. In words: Blood pressure of KKAy mice (non-invasive sphygmomanometer). To be noted: 53rd day, 150 mg/kg.
Experimental: The KKAy mice with spontaneous type 2 diabetes were divided into 5 groups based on the following five indexes: blood glucose reduction percentage within 40 min in an insulin tolerance test, fasting blood glucose, blood TG, blood TC, and weight. […] The female C57BL/6J mice were used as a normal animal control group (Nor, underwent gavage with a equal volume of water, n=10). Gavage was performed once a day for 58 consecutive days, and onOn the 53rd day of administration to the animals in each group, the blood pressure was measured by using an intelligent non-invasive sphygmomanometer (BP98A, Beijing Ruanlong Biotechnology Co., Ltd.).
Experiment [6] has as its system C57BL/6J mice fed with a high-fat diet. In words: Insulin tolerance test in C57BL/6J mice fed with a high-fat diet. The settings on record: 10th day, 150 mg/kg. On the procedure: The male C57BL/6J mice were fed with a high-fat and high-nutrient diet, with 5 mice in each cage. When the mice weighed over 45 g, prediction of a plurality of indexes such as blood glucose, blood lipid, and insulin resistance were performed. Based on fasting blood glucose, blood glucose reduction percentage within 40 min in an insulin tolerance test, blood TG, blood TC, and weight, the mice were divided into 5 groups, with 12 mice in each group.
C57BL/6J mice fed a with high-fat diet and weighing more than 45 g were selected for multi-index prediction tests such as blood glucose, blood lipids, and insulin resistance, and were divided into 5 groups based on the following five indexes: blood glucose reduction percentage within 40 min in an insulin tolerance test, fasting blood glucose, blood TG, blood TC, and weight, with 12 mice in each group. […] Male C57BL/6J mice were used as a normal animal control group. Animals in the positive drug group and each test drug group underwent gavage with a corresponding dosage of the test drug each day. The normal control group and model group underwent gavage with an equal volume of water once a day for 30 days. Animals in each group underwent an insulin tolerance test on the 10th day of the administration. On the test day, the animals fasted for 4 hours (free to drink water), blood was collected from the tail tip (0 min), and then regular insulin (0.4 U/kg) was injected subcutaneously.

In experiment [1] (ELISA), `CN(C)C(=N)N=C(N)N` [Met, metformin] showed a Blood insulin of 36.3 ± 27.6 ng/mL. In addition, in experiment [1] (ISI=1/(FBGmg/dl×FBIng/ml)), the ISI is recorded as 0.26 ± 0.16 ×10^−3. The molecule further came in with a HbA1c in experiment [2] of 4.34 ± 0.83 %. The “Serum TC” value in experiment [3] is 243.8 ± 44.0 mg/dL. The “Serum TG” value in experiment [3] was 253.2 ± 172.6 mg/dL. Further, the GIR in experiment [4] is given as 14.5 ± 0.6 mg/kg · min. Also, the BP in experiment [5] was 118.7 ± 10.8 mmHG. The Glu in experiment [6] (0 min) came to 104.5 ± 7.6 mg/dL; in experiment [6] (40 min) it was 78.3 ± 10.3 mg/dL; in experiment [6] (90 min) it was 87.5 ± 24.6 mg/dL.

The values above are taken from patent publication US11744870B2, “Traditional Chinese medicine composition for treating metabolic syndrome and preparations thereof” (JIANGSU JIUXU PHARMACEUTICAL CO., LTD., priority 2018, dated 2023).
